Here are results for 3 compounds from US4292241A, “Antibiotic PA-31088-IV and production thereof” (Shionogi & Co., Ltd., priority 1979, dated 1981).

For one assay, the system named is P. vulgaris 50. Kind of assay: Synergistic activity with other β-lactam antibiotics (MIC). Format: cell-based. The source says: (§1) (c) Synergistic activity with other β-lactam antibiotics
Another assay relates to S. marcescens 39. The description is as above. It is filed as cell-based.
Description: as §1

The next assay concerns S. aureus 2132. The assay is described as above. Format: cell-based.
Assay [1] concerns Streptococcus pneumoniae I. Kind of assay: Antibacterial spectrum (MIC). It is filed as cell-based. The following applies: inoculum one loopful of 10^6 cfu/ml. The source says:
(§2) (a) Antibacterial spectrum | Inoculum size = one loopful of 10^6 cfu/ml

Another assay relates to Proteus mirabilis PR-4. Kind of assay: Antibacterial spectrum (MIC). Format: cell-based. The following applies: inoculum one loopful of 10^6 cfu/ml.
Description: as §2

The subject of assay [2] is Pseudomonas aeruginosa ATCC 25619. Kind of assay: Antibacterial spectrum (MIC). It is filed as cell-based. The following applies: inoculum one loopful of 10^6 cfu/ml.
Description: as §2

The test system of a further assay is Enterobactor cloacae 233. Kind of assay: Antibacterial spectrum (MIC). Format: cell-based. The following applies: inoculum one loopful of 10^6 cfu/ml.
Description: as §2

The test system of assay [3] is Escherichia coli NIHJ JC-2. Kind of assay: Antibacterial spectrum (MIC). It is filed as cell-based. As to conditions: inoculum one loopful of 10^6 cfu/ml.
Description: as §2

In another assay the test system is Klebsiella sp. 363 (R). Briefly: Antibacterial spectrum (MIC). It is filed as cell-based. As to conditions: inoculum one loopful of 10^6 cfu/ml.
Description: as §2

The test system of assay [4] is Serratia marcescens ATCC 13880. Kind of assay: Antibacterial spectrum (MIC). It is filed as cell-based. The following applies: inoculum one loopful of 10^6 cfu/ml.
Description: as §2

The test system of assay [5] is Klebsiella pneumoniae SRL-1. Kind of assay: Antibacterial spectrum (MIC). As to conditions: inoculum one loopful of 10^6 cfu/ml. It is filed as cell-based.
Description: as §2

For assay [6], the system named is Staphylococcus aureus 209P JC-1. Kind of assay: Antibacterial spectrum (MIC). The following applies: inoculum one loopful of 10^6 cfu/ml. Format: cell-based.
Description: as §2

The target of assay [7] is lactamase of cephalosporinase type (Enterobactor cloacae 92) (Enterobacter cloacae, UniProt P05364). Kind of assay: β-Lactamase inhibitory activity. Format: biochemical. The following applies: β-lactamase producing bacteria Enterobactor cloacae 92, cephalosporinase type. The text has this:
(§3) (b) β-Lactamase inhibitory activity
*produces lactamase of cephalosporinase type

In assay [8] the test system is lactamase of penicillinase type (Klebsiella sp. 363). Briefly: β-Lactamase inhibitory activity. The following applies: β-lactamase producing bacteria Klebsiella sp. 363, penicillinase type. It is filed as biochemical.
Description: as §3
**produces lactamase of penicillinase type

Sequence of lactamase of cephalosporinase type (Enterobactor cloacae 92) (P05364 21-381): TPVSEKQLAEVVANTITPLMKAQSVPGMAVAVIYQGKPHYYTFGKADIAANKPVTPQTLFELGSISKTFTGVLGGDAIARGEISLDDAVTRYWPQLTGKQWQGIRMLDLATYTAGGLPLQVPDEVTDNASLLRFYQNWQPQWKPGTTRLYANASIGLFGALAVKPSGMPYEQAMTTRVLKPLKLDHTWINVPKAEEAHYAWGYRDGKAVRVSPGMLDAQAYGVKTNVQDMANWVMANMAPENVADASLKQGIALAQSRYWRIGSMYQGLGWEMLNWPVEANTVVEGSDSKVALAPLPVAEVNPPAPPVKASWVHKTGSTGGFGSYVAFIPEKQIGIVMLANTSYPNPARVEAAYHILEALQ

For `Cc1nnc(SCC2=C(C(=O)O)N3C(=O)[C@@H](NC(=O)Cn4cnnn4)[C@H]3SC2)s1` [Cefazolin, cefazolin], the “MIC of Cefazolin” value is greater than 200 µg/mL in the assay with P. vulgaris 50 (PA-31088-IV 0 μg/ml); 6.3 µg/mL in the assay on P. vulgaris 50 (with PA-31088-IV 2.5 μg/ml); 3.1 µg/mL in the assay with P. vulgaris 50 (with PA-31088-IV 10 μg/ml); greater than 200 µg/mL with S. marcescens 39 (PA-31088-IV 0 μg/ml); 6.3 µg/mL in the assay on S. marcescens 39 (with PA-31088-IV 2.5 μg/ml); 0.4 µg/mL in the assay on S. marcescens 39 (with PA-31088-IV 10 μg/ml). The “MIC of Cefazolin” value came to 6.3 µg/mL in the assay with S. aureus 2132 (PA-31088-IV 0 μg/ml), 0.8 µg/mL with S. aureus 2132 (with PA-31088-IV 2.5 μg/ml) and 0.4 µg/mL with S. aureus 2132 (with PA-31088-IV 10 μg/ml).
For the compound `CC(=O)NC=CS(=O)(=O)C1=C(C(=O)O)N2C(=O)C(=C(C)CO)C2C1` (centres unmarked) [PA-31088-IV, 3-[(2-acetamidoethylene)sulfonyl]-6-(2-hydroxy-1-methylethylidene)-7-oxo-1-azabicyclo[3.2.0]hept-2-ene-2-carboxylic acid], the “Minimum Inhibitory Concentration” value in assay [1] worked out at 0.39 µg/mL; with Proteus mirabilis PR-4, 6.25 µg/mL; in [2], 50 µg/mL; in the assay on Enterobactor cloacae 233, 3.13 µg/mL; in assay [3], 3.13 µg/mL; with Klebsiella sp. 363 (R), 3.13 µg/mL. In addition, the results for the “Minimum Inhibitory Concentration” value in [4], in [5] and in assay [6] were 12.5 µg/mL, 1.56 µg/mL and 3.13 µg/mL, respectively. The “Minimum Inhibitory Concentration (β-lactamase inhibitory activity)” value in assay [7] is 0.98 µg/mL; in [8], 0.06 µg/mL. The “MIC of PA-31088-IV” value in the assay on P. vulgaris 50 (PA-31088-IV alone), with S. marcescens 39 (PA-31088-IV alone) and with S. aureus 2132 (PA-31088-IV alone) was greater than 10 µg/mL throughout.
`CC1(C)S[C@@H]2[C@H](NC(=O)[C@H](N)c3ccccc3)C(=O)N2[C@H]1C(=O)O` [Ampicillin, ampicillin]: the “MIC of Ampicillin” value in the assay on P. vulgaris 50 (PA-31088-IV 0 μg/ml) was greater than 200 µg/mL; in the assay on P. vulgaris 50 (with PA-31088-IV 2.5 μg/ml) it was 6.3 µg/mL; in the assay with P. vulgaris 50 (with PA-31088-IV 10 μg/ml), 1.6 µg/mL; in the assay on S. marcescens 39 (PA-31088-IV 0 μg/ml) it was greater than 200 µg/mL; with S. marcescens 39 (with PA-31088-IV 2.5 μg/ml), 3.1 µg/mL; in the assay on S. marcescens 39 (with PA-31088-IV 10 μg/ml) it was 0.1 µg/mL.
